This is an account of results in patent publication US20120148682A1.

The structures appear in SMILES notation.

The subject of data set [1] is Leptosphaeria nodorum (LEPTNO). Nature of the data set: In vitro fungitoxicity (growth inhibition) in copper-minus and copper-plus medium. Type of data set: cell-based. The protocol: Trace elements (minus CuSO4), and vitamins described by Coursen and […] were added from concentrated stock solutions and the entire medium was sterilized by filtration. […] […] was grown on potato dextrose agar in 9 cm diameter petri dishes for 7 days. Sterile deionized water (20 mL) was added to a culture plate and spores suspended by scraping the surface gently with a sterile plastic loop. The resulting suspension was filtered through a double layer of sterile cheesecloth. Filtered spore suspension (5 mL) was centrifuged in a bench centrifuge at 2000 rpm for 2 min. […] Microtiter plates were inoculated with 100 μL of this spore suspension and the plates incubated at 25° C. for 72 h before assessing fungal growth by measuring light scattering in a NepheloStar plate reader. Growth inhibition was determined by comparing growth in the presence of test compound with growth in control wells lacking test compound. Results for growth inhibition by test compounds in copper-plus medium (“% Inhn. Plus Copper Observed”) were compared with predicted values (“% Inhn. Plus Copper Predicted”) that were calculated using the formula set forth by S. R. […] Minus Copper Observed”) and the inhibition attributed to copper chloride alone, as determined by comparing growth in copper-minus and copper-plus media without any test compound across experiments. Results illustrate that hydrazones and copper produce a synergistic fungitoxic effect towards […].

The next data set concerns Phytophthora infestans. The class given is in vivo. As to conditions: 50 ppm hydrazone with 50 μM CuCl2.2H2O, applied 24 h before inoculation, tomato plants, 7 days after inoculation.
A further data set deals with Phytophthora capsici. As to the kind of experiment: In vitro fungitoxicity in copper-minus AS and copper-plus AS medium. As to conditions: CuCl2 50 uM, without test compound, across experiments. The class given is cell-based. The protocol: Plates were inoculated with 7-mm plugs from a 1-week old culture, incubated at 25° C. in the dark for 3 days, and then placed under fluorescent lights for 4 days to induce sporulation. Zoospore release from sporangia was induced by adding 15 mL of sterile deionized water (which had been treated with Chelex 100 resin using 0.5 g resin per liter of water by stirring at room temperature for 1 h) to each plate, and incubating for 10 min at 25° C. followed by 20 min at 4° C. The plates were returned to 25° C. for 10 min and the aqueous suspension of released zoospores was recovered. The zoospore suspension was adjusted to 5×10^4 spores/mL by dilution into Chelex 100-treated water. Microtiter plates were inoculated with 100 μL of spore suspension and incubated at 25° C. for 48 h before assessing fungal growth by measuring light scattering in a NepheloStar plate reader. Growth inhibition was determined by comparing growth in the presence of test compound with growth in control wells lacking test compound. Results for growth inhibition by test compounds in copper-plus AS medium (“% Inhn. Plus Copper Observed”) were compared with predicted values (“% Inhn. Plus Copper Predicted”) that were calculated using the formula set forth by S. R. […]

Another data set has as its system Ustilago maydis. Nature of the data set: In vitro fungitoxicity in copper-minus and copper-plus medium. Type of data set: cell-based. As to conditions: CuCl2 10 μM, without test compound. How it is done:
Test compounds were dissolved in dimethylsulfoxide (DMSO) at 200 μg/mL and 1 μL aliquots were added to two wells of flat-bottomed 96-well microtiter plates. […] Control wells, included for each medium, received 1 uL DMSO and 100 μL of medium. Ustilago maydis was grown in 50 mL potato dextrose broth with shaking at 25° C. for 24 h. A 10 mL aliquot of the culture was centrifuged at 2000 rpm for 2 min, resuspended in 10 mL of sterile Chelex 100-treated water, and centrifuged again. […] Microtiter plate wells containing test compound of DMSO (control) as described above were inoculated with 100 μL of this spore suspension and the plates incubated at 25° C. for 48 h before assessing fungal growth by measuring light scattering in a NepheloStar plate reader. Growth inhibition was determined by comparing growth in the presence of test compound with growth in control wells lacking test compound. […] Plus Copper Observed”) were compared with predicted results (“% Inhn. Plus Copper Predicted”) that were calculated using the formula set forth by S. R. […] Minus Copper Observed”) and the inhibition attributed to copper chloride alone, as determined by comparing growth in copper-minus and copper-plus media without any test compound. Results illustrate that hydrazones and copper produce a synergistic fungitoxic effect towards Ustilago maydis.

Data set [2] deals with Septoria tritici isolate USA-184. Described as above. Type of data set: cell-based. The settings on record: CuCl2 1 μM, without test compound. The protocol: Test compounds were dissolved in dimethylsulfoxide (DMSO) at 10 μg/mL and 1 μL aliquots were added to two wells of flat-bottomed 96-well microtiter plates. […] Control wells, included for each medium, received 1 uL DMSO and 100 μL of medium. Septoria tritici isolate USA-184 was grown on potato dextrose agar at 18° C. under black lights for 3 days. A loopful of spores was transferred from the culture to a 15 mL tube containing 5 mL of sterile Chelex-treated water. The spores were centrifuged at 2000 rpm for 2 min, resuspended in 10 mL water, and centrifuged again. […] Microtiter plate wells containing test compound of DMSO (control) as described above were inoculated with 100 μL of this spore suspension and the plates incubated at 25° C. for 90 h before assessing fungal growth by measuring light scattering in a NepheloStar plate reader. Growth inhibition was determined by comparing growth in the presence of test compound with growth in control wells lacking test compound. […] Plus Copper Observed”) were compared with predicted results (“% Inhn. Plus Copper Predicted”) that were calculated using the formula set forth by S. R. […] Minus Copper Observed”) and the inhibition attributed to copper chloride alone, as determined by comparing growth in copper-minus and copper-plus media without any test compound. […]

Data set [3] deals with Staphylococcus aureus, Escherichia coli, Aspergillus niger and A. flavus. The settings on record: Proceedings of the National Academy of Sciences, India 1991; cited from earlier work.

Regarding `O=C(N/N=C/c1cccc(C(F)(F)F)c1O)c1ccc(C(F)(F)F)cc1O` [Compound 42], the melting point fell in the range of 248 to 253 °C. The “LEPTNO % Inhn. Plus Copper Observed” value in data set [1] (0.05 μg/mL compound, copper-plus medium (CuCl2, 10 μM), 72 h) was found to be 98.4%. In addition, the inhibition of growth at 0.05 µg/mL in data set [1] (Parastagonospora nodorum, 0.05 μg/mL compound, copper-minus medium, 72 h, read-out: LEPTNO % Inhn. Minus Copper Observed) amounted to 8.8%. Further, the “TLB % Control” value in the data set with Phytophthora infestans is listed as 100.0%.

Take `[Cl][Cu][Cl]` [CuCl2, copper chloride]: the “LEPTNO % Inhn. copper chloride alone” value in data set [1] (CuCl2 10 μM, without test compound, across experiments) is on record as 7.1 ± 6.0%. Besides, the “% Inhn copper chloride alone” value with Phytophthora capsici stood at 4.5 ± 7.9%. In addition, the “% Inhn. copper chloride alone” value in the data set with Ustilago maydis is reported as 11.9%. Besides, the results for the “% Inhibition copper chloride alone” value in data set [2] and in data set [2] (listed as copper chloride) were 0% and “no effect on growth”, respectively.

As for `O=C(NN=Cc1ccccc1O)c1ccccc1O` [o-hydroxybenzaldehyde-N-salicyloylhydrazone], in data set [3], the antimicrobial activity result is “Antimicrobial activity has been reported”.
